Experimental data: paper PMC10708454, “Mentha spp. Essential Oils: A Potential Toxic Fumigant with Inhibition of Acetylcholinesterase Activity on Reticulitermes dabieshanensis” (Plants, 2023)

Biological target: T1, acetylcholinesterase (AChE)
T1 construct: gene ace-1; native enzyme in crude whole-worker homogenate (Triton X-100 supernatant), not purified; the docking model is of Coptotermes formosanus, not this enzyme
Test: Ellman assay, crude termite homogenate
Type: biochemical, Reticulitermes dabieshanensis
Details: acetylthiocholine iodide (10 mM stock), DTNB, Tris-HCl pH 7.8, 30 min, inhibitor in alcohol

| SMILES | IC50 ^a (95% CI ^b) (0.5-6.0 μL/mL) | IC50 ^a (95% CI ^b) (1.0-20.0 μL/mL (value outside tested range)) |
| --- | --- | --- |
| C=C(C)C1CC=C(C)C(=O)C1 (stereo not drawn) [carvone] | 1.922 (1.131–3.308) μL/mL |  |
| C=CC(C)(O)CCC=C(C)C (stereo not drawn) [linalool] | 0.136 (0.066–0.218) μL/mL |  |
| CC(C)[C@@H]1CC[C@@H](C)C[C@H]1O [menthol] |  | 76.790 (36.58–166.367) μL/mL |
